# Source: patent US8124964B2, “Field-effect transistor” (Nippon Kayaku Kabushiki Kaisha, priority 2006, dated 2012)
# Experiments:
# [1] = Solubility Test 2: solubility to chloroform; type: physicochemical; details: room temperature, visually checked
# Experimental: (§1) To confirm solubility to solvent, the solubility of a test compound to chloroform was measured. A test compound was added to chloroform little by little at room temperature and stirred. The solubility was determined by visually checking whether it was dissolved or not. When the test compound remained undissolved, the total amount by mass of the test compound added immediately before the moment was calculated and the solubility to chloroform was expressed in terms of % by mass.
# After a chloroform suspension solution of the compound represented by the formula (101) above was prepared, insoluble solid substances were filtered off to obtain a filtrate. The solubility of the compound represented by the formula (101) above to the filtrate was 0.02% by mass.
# [2] = Solubility Test 1: solubility to toluene; type: physicochemical; details: for Solubility (% by mass): to toluene, room temperature, visually checked
# Experimental: as §1, with “solvent, which is one of the important characteristics of a semiconductor manufactured by coating,” for “solvent,”, “toluene” for “chloroform”
# The “Compound No.” of Table 2 is the same as defined in Table 1. Furthermore, in Comparative Example 1, the solubility of Compound 16 of Example 15 disclosed in Patent Document 3 to toluene was calculated by the same test method as above. The structural formula of the compound used in Comparative Example 1 is shown in the formula (101) below.
Solubility (% by mass) [1] [% by mass],Solubility (% by mass) [2],solubility to toluene relative to the aryl derivative of Comparative Example 1 [2],Solubility (% by mass) ([2]; listed as formula (101)),Structure (SMILES)
5.4,1.5 % by mass,at least 50 fold,,"CCCCCCCCc1ccc2c(c1)sc1c3ccc(CCCCCCCC)cc3sc21 [Compound No. 16, 2,7-Dioctyl[1]benzothieno[3,2-b][1]benzothiophene]"
0.6,0.2 % by mass,≥ 20 fold,,"CCCCCCCCCCCCc1ccc2c(c1)sc1c3ccc(CCCCCCCCCCCC)cc3sc21 [Compound No. 20, 2,7-Didodecyl[1]benzothieno[3,2-b][1]benzothiophene]"
0.02,0.01 or less % by mass,,not more than 0.01 % by mass,"c1ccc(-c2ccc3c(c2)sc2c4ccc(-c5ccccc5)cc4sc32)cc1 [Comparative Example 1, reference compound]"
